Measurements taken from patent US12071434B2, “Heterocyclic compound” (Takeda Pharmaceutical Company Limited, priority 2018, dated 2024).

These compounds were tested against T1, human orexin type 2 receptor (Homo sapiens, UniProt O43614) (assay: Measurement of orexin type 2 receptor agonist activity (calcium fluorescence, Fluo-4 AM, FDSS) in CHO cells forcibly expressing human OX2 receptor). Details: test compound 3 μM, DMSO = 0%, orexin A (human) 10 nM = 100%.
T1 construct: expressed in transfected cells
T1 sequence (O43614 1-444): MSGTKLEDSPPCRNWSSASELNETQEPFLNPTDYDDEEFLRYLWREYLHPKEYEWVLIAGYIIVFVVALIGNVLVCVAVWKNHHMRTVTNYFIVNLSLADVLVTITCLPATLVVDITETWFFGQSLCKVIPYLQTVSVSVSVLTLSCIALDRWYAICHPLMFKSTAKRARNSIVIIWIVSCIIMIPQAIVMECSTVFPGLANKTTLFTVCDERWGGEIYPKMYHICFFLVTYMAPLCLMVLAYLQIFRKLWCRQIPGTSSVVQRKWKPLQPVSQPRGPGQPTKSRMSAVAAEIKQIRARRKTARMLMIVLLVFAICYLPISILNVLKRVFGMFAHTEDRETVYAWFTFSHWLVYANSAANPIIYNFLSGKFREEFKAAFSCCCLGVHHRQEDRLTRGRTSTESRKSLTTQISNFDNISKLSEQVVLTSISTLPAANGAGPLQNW
Assay type: cell-based
Method in brief: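 CHO-dhfr cells stably expressing human OX2 receptor, loaded with Fluo-4 AM plus probenecid for 30 min at 37 °C, then 30 min at room temperature. Calcium fluorescence read for about 2 min 40 s after compound addition. Activity (%) scaled between DMSO (0%) and 10 nM human orexin A (100%).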

First: CC(C)n1cnc2c(c1=O)[C@@H](Cc1cccc(-c3cccc(C(F)F)c3F)c1F)[C@@H](NS(C)(=O)=O)CC2 (relative stereo) [Example 152, rel-N-[(5R,6S)-5-{[3′-(difluoromethyl)-2,2′-difluoro[1,1′-biphenyl]-3-yl]methyl}-4-oxo-3-(propan-2-yl)-3,4,5,6,7,8-hexahydroquinazolin-6-yl]methanesulfonamide]
Second: CC(C)n1cnc2c(c1=O)[C@@H](Cc1cccc(-c3cccc(F)c3)c1F)[C@@H](NS(=O)(=O)C1(F)CC1)CC2 [Example 181, N-[(5R,6S)-5-[(2,3′-difluoro[1,1′-biphenyl]-3-yl)methyl]-4-oxo-3-(propan-2-yl)-3,4,5,6,7,8-hexahydroquinazolin-6-yl]-1-fluorocyclopropane-1-sulfonamide]
The “0X2R agonist activity (3 μM, %)” value of the first is higher: 94% for the first, 91% for the second.

Going from CCn1ccc2c(c1=O)[C@@H](Cc1cccc(-c3ccccc3F)c1)[C@@H](NS(C)(=O)=O)CC2 (racemic) [Example 119, rac-N-{(7S,8R)-2-ethyl-8-[(2′-fluoro[1,1′-biphenyl]-3-yl)methyl]-1-oxo-1,2,5,6,7,8-hexahydroisoquinolin-7-yl}methanesulfonamide] to CCn1ccc2c(c1=O)[C@@H](Cc1cccc(-c3cccc(C)c3F)c1)[C@@H](NS(C)(=O)=O)CC2 (racemic) [Example 120, rac-N-{(7S,8R)-2-ethyl-8-[(2′-fluoro-3′-methyl[1,1′-biphenyl]-3-yl)methyl]-1-oxo-1,2,5,6,7,8-hexahydroisoquinolin-7-yl}methanesulfonamide], the “0X2R agonist activity (3 μM, %)” value falls from 105% to 98%.

Going from CCS(=O)(=O)N[C@H]1CCc2ncn(C(C)C)c(=O)c2[C@H]1Cc1cccc(-c2cc(C)ccn2)c1 (racemic) [Example 98, rac-N-[(5R,6S)-5-{[3-(4-methylpyridin-2-yl)phenyl]methyl}-4-oxo-3-(propan-2-yl)-3,4,5,6,7,8-hexahydroquinazolin-6-yl]ethanesulfonamide] to CCS(=O)(=O)N[C@H]1CCc2ncn(C(C)C)c(=O)c2[C@H]1Cc1cccc(-c2cccc(C)c2F)c1 (racemic) [Example 83, rac-N-[(5R,6S)-5-[(2′-fluoro-3′-methyl[1,1′-biphenyl]-3-yl)methyl]-4-oxo-3-(propan-2-yl)-3,4,5,6,7,8-hexahydroquinazolin-6-yl]ethanesulfonamide], the “0X2R agonist activity (3 μM, %)” value falls from 107% to 100%.

Compared with Cc1n[nH]c(=O)c2c1CC[C@H](NS(C)(=O)=O)[C@@H]2Cc1cccc(-c2ccccc2)c1 (racemic) [Example 138, rac-N-{(5R,6S)-5-[([1,1′-biphenyl]-3-yl)methyl]-1-methyl-4-oxo-3,4,5,6,7,8-hexahydrophthalazin-6-yl}methanesulfonamide], Cc1cccc(-c2cccc(C[C@@H]3c4c(ncn(C(C)C)c4=O)CC[C@@H]3NS(C)(=O)=O)c2)c1 (racemic) [Example 106, rac-N-[(5R,6S)-5-[(3′-methyl[1,1′-biphenyl]-3-yl)methyl]-4-oxo-3-(propan-2-yl)-3,4,5,6,7,8-hexahydroquinazolin-6-yl]methanesulfonamide] is higher in “0X2R agonist activity (3 μM, %)” value: 44% for the first, 103% for the second.

Compared with CC(C)n1cnc2c(c1=O)[C@@H](Cc1cccc(-c3cccc(F)c3F)c1)[C@@H](NS(=O)(=O)C1CC1)CC2 [Example 193, N-[(5R,6S)-5-[(2′,3′-difluoro[1,1′-biphenyl]-3-yl)methyl]-4-oxo-3-(propan-2-yl)-3,4,5,6,7,8-hexahydroquinazolin-6-yl]cyclopropanesulfonamide], [2H]C([2H])([2H])C([2H])(n1cnc2c(c1=O)C(Cc1cccc(-c3ccccc3)c1F)C(NS(=O)(=O)C1(F)CC1)CC2)C([2H])([2H])[2H] [Example 213, rel-1-fluoro-N-{(5S,6R)-5-[(2-fluoro[1,1′-biphenyl]-3-yl)methyl]-4-oxo-3-[(~2~H_7_)propan-2-yl]-3,4,5,6,7,8-hexahydroquinazolin-6-yl}cyclopropane-1-sulfonamide] is higher in “0X2R agonist activity (3 μM, %)” value: 97% for the first, 105% for the second.
